# Data published in patent US20120010404A1, “OXAZINE DYES WITH IMPROVED AQUEOUS SOLUBILITY” (SIGMA-ALDRICH CO., priority 2008, published 2012).
# Assay: Fluorescence quenching with tryptophan (steady-state, Stern-Volmer)
# Format: physicochemical
# Conditions: phosphate buffered solutions, pH = 8.0, 25° C.; in M-1 (unit assumed)
# Experimental: FIG. 4 illustrates the fluorescence quenching by tryptophan. Shown is the fluorescence of Dye 3 in the absence and presence of various concentration of tryptophan (Trp) in phosphate buffer (pH 8) as a function of wavelength.
# Steady-state fluorescence spectroscopy was performed for Dye 2, Dye 3, Dye 14, and Mr121 dye in presence of tryptophan at 25° C. in phosphate buffer.
# For evaluating the quenching efficiency, the steady-state fluorescence quenching results were analyzed following the Stern-Volmer equation F0/F=1+KQ[Q], where Fo and F are the fluorescence intensities in the absence and presence of tryptophan and KQ is a static Stern-Volmer constant.
row,"Tryptophan Stern-Volmer static quenching constant, KQ",Compound
1,320 ± 26,"CC1CC(C)(C)N(CCCS(=O)(=O)O)c2cc3c(cc21)N=c1cc2c(cc1O3)=[N+](CCCC(=O)O)C(C)(C)CC2CS(=O)(=O)[O-] (stereo not drawn) [Dye 3, sodium 3-(11-(3-carboxypropyl)-2,2,4,10,10-pentamethyl-8-(sulfonatomethyl)-2,3,4,8,9,10-hexahydro-1H-dipyrido[3,2-b:2′,3′-i]phenoxazin-11-ium-1-yl)propane-1-sulfonate]"
2,269 ± 22,"CC1(C)CC(CS(=O)(=O)[O-])c2cc3c(cc2N1CCCS(=O)(=O)[O-])Oc1cc2c(cc1=N3)C(CS(=O)(=O)[O-])CC(C)(C)[N+]=2CCCC(=O)O.[Na+].[Na+] (stereo not drawn) [Dye 14, disodium (11-(3-carboxypropyl)-2,2,10,10-tetramethyl-1-(3-sulfonatopropyl)-2,3,4,8,9,10-hexahydro-1H-dipyrido[3,2-b:2′,3′-i]phenoxazine-11-ium-4,8-diyl)dimethanesulfonate]"
3,263 ± 24,"CC1(C)CC(CS(=O)(=O)[O-])c2cc3c(cc2=[N+]1CCCC(=O)O)Oc1cc2c(cc1N=3)CCCN2CCCS(=O)(=O)O (stereo not drawn) [Dye 2, sodium 3-(11-(3-carboxypropyl)-10,10-dimethyl-8-(sulfonatomethyl)-2,3,4,8,9,10-hexahydro-1H-dipyrido[3,2-b:2′,3′-i]phenoxazin-11-ium-1-yl)propane-1-sulfonate]"
